Patent US10316017B2, “COT modulators and methods of use thereof” (Gilead Sciences, Inc., priority 2015, dated 2019)
Each block holds one molecule with its values, some of them ahead of it.

Molecular target: T1, human Cot catalytic domain (30-397 amino acids) (Homo sapiens, UniProt P41279)
T1 construct: Purified recombinant human Cot catalytic domain (30-397 amino acids) was purchased from Cama Biosciences; purchased Cama Biosciences (so in the source)
Test: High Throughput Cot Biochemical Assay (KinEASE TR-FRET)
Settings: Cot KinEASE TR-FRET, 400 μM ATP; read-out: IC50 HTRF
In short: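 Recombinant human Cot catalytic domain (aa 30-397), 5 nM, with 1 μM STK3 peptide and 400 μM ATP in MOPS pH 7.0 buffer with MgOAc, DTT, BSA, NP-40, glycerol, 0.1% DMSO. Phosphorylated XL665-peptide detected by Eu-[…] antibody TR-FRET.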

T1 sequence (P41279 30-397): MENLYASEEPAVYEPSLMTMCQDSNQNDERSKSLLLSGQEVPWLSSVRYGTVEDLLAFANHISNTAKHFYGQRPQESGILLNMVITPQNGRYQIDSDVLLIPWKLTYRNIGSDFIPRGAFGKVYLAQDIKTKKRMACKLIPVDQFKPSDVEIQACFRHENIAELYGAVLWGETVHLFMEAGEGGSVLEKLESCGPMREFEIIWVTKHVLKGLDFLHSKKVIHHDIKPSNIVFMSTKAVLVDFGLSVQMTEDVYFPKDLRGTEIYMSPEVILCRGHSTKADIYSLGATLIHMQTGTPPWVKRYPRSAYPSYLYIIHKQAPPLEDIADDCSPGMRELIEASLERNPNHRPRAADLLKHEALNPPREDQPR

Compound: N#Cc1cnc2c(Cl)cc(NC(c3cc(C(F)(F)F)cc(C(F)(F)F)c3)c3cn(C4CCNCC4)nn3)cc2c1Nc1ccc(F)c(Cl)c1 (stereo not drawn) [Example 874, 6-(((3,5-bis(trifluoromethyl)phenyl)(1-(piperidin-4-yl)-1H-1,2,3-triazo1-4-yl)methyl)amino)-8-chloro-4-((3-chloro-4-fluorophenyl)amino)quinoline-3-carbonitrile]
IC50: 97 nM

Compound: N#Cc1cnc2c(Cl)cc(NC(c3cc(F)c(F)c(F)c3)c3cn(C4CCNCC4)nn3)cc2c1Nc1ccc(F)c(Cl)c1 (stereo not drawn) [Example 875, 8-chloro-4-((3-chloro-4-fluorophenyl)amino)-6-(((1-(piperidin-4-yl)-1H-1,2,3-triazol-4-yl)(3,4,5-trifluorophenyl)methyl)amino) quinoline-3-carbonitrile]
IC50: 66 nM

Compound: N#Cc1cnc2c(Cl)cc(NC(c3ccc(F)cc3)c3cn([C@H]4CCN(C(=O)OCc5ccccc5)C4)nn3)cc2c1Nc1ccc(F)c(Cl)c1 (stereo partly drawn) [Example 876, benzyl (3S)-3-(4-(((8-chloro-4-((3-chloro-4-fluorophenyl)amino)-3-cyanoquinolin-6-yl)amino)(4-fluorophenyl)methyl)-1H-1,2,3-triazol-1-yl)pyrrolidine-1-carboxylate]
IC50: 385 nM

Compound: CCN1CC[C@H](n2cc(C(Nc3cc(Cl)c4ncc(C#N)c(Nc5ccc(F)c(Cl)c5)c4c3)c3ccc(F)cc3)nn2)C1 (stereo partly drawn) [Example 877, 8-chloro-4-((3-chloro-4-fluorophenyl)amino)-6-(((1-((S)-1-ethylpyrrolidin-3-yl)-1H-1,2,3-triazol-4-yl)(4-fluorophenyl)methyl)amino) quinoline-3-carbonitrile]
IC50: 47 nM

Compound: N#Cc1cnc2c(Cl)cc(NC(c3ccc(Cl)cc3)c3cn([C@H]4CCN(C(=O)OCc5ccccc5)C4)nn3)cc2c1Nc1ccc(F)c(Cl)c1 (stereo partly drawn) [Example 878, benzyl (3S)-3-(4-(((8-chloro-4-((3-chloro-4-fluorophenyl)amino)-3-cyanoquinolin-6-yl)amino)(4-chlorophenyl)methyl)-1H-1,2,3-triazol-1-yl)pyrrolidine-1-carboxylate]
IC50: 7700 nM

Compound: CCN1CC[C@H](n2cc(C(Nc3cc(Cl)c4ncc(C#N)c(Nc5ccc(F)c(Cl)c5)c4c3)c3ccc(Cl)cc3)nn2)C1 (stereo partly drawn) [Example 879, 8-chloro-4-((3-chloro-4-fluorophenyl)amino)-6-(((4-chlorophenyl)(1-((S)-1-ethylpyrrolidin-3-yl)-1H-1,2,3-triazol-4-yl)methyl)amino)quinoline-3-carbonitrile]
IC50: 101 nM

Compound: N#Cc1cnc2c(Cl)cc(NC(c3ccc(Cl)cc3)c3cn([C@H]4CCNC4)nn3)cc2c1Nc1ccc(F)c(Cl)c1 (stereo partly drawn) [Example 880, 8-chloro-4-((3-chloro-4-fluorophenyl)amino)-6-(((4-chlorophenyl)(1-((S)-pyrrolidin-3-yl)-1H-1,2,3-triazol-4-yl)methyl)amino)quinoline-3-carbonitrile]
IC50: 68 nM

Compound: Cc1cc(F)ccc1C(Nc1cc(Cl)c2ncc(C#N)c(Nc3ccc(F)c(Cl)c3)c2c1)c1cn(C2CCN(C(=O)OCc3ccccc3)CC2)nn1 (stereo not drawn) [Example 883, benzyl 4-(4-(((8-chloro-4-((3-chloro-4-fluorophenyl)amino)-3-cyanoquinolin-6-yl)amino)(4-fluoro-2-methylphenyl)methyl)-1H-1,2,3-triazol-1-yl) piperidine-1-carboxylate]
IC50: 6680 nM

Compound: N#Cc1cnc2c(Cl)cc(NC(c3ccc(F)cc3)c3cn(C4CCNCC4)nn3)cc2c1Nc1ccc(F)c(Cl)c1 (stereo not drawn) [Example 886, 8-chloro-4-((3-chloro-4-fluorophenyl)amino)-6-(((4-fluorophenyl)(1-(piperidin-4-yl)-1H-1,2,3-triazol-4-yl)methyl)amino)quinoline-3-carbonitrile]
IC50: 11 nM

Continued, values first:

IC50: 50 nM
Compound: N#Cc1cnc2c(Cl)cc(NC(c3ccccc3)c3c[nH]nn3)cc2c1Nc1ccc(F)c(Cl)c1 (stereo not drawn) [Example 888, 8-chloro-4-((3-chloro-4-fluorophenyl)amino)-6-((phenyl(1H-1,2,3-triazol-4-yl)methyl)amino)quinoline-3-carbonitrile]

IC50: > 10000 nM
Compound: N#Cc1cnc2c(Cl)cc(NC(c3cc(F)c(F)c(F)c3)c3cn(C4CCN(C(=O)OCc5ccccc5)CC4)nn3)cc2c1Nc1ccc(F)c(Cl)c1 (stereo not drawn) [Example 890, benzyl 4-(4-(((8-chloro-4-((3-chloro-4-fluorophenyl)amino)-3-cyanoquinolin-6-yl)amino)(3,4,5-trifluorophenyl)methyl)-1H-1,2,3-triazol-1-yl)piperidine-1-carboxylate]

IC50: 30 nM
Compound: Cn1cc(C(Nc2cc(Cl)c3ncc(C#N)c(Nc4ccc(F)c(Cl)c4)c3c2)c2ccc(F)c(F)c2)nn1 (stereo not drawn) [Example 891, 8-chloro-4-((3-chloro-4-fluorophenyl)amino)-6-(((3,4-difluorophenyl)(1-methyl-1H-1,2,3-triazol-4-yl)methyl)amino)quinoline-3-carbonitrile]

IC50: 78 nM
Compound: Cn1cc(C(Nc2cc(Cl)c3ncc(C#N)c(Nc4ccc(F)c(Cl)c4)c3c2)c2ccc(Cl)c(Cl)c2)nn1 (stereo not drawn) [Example 892, 8-chloro-4-((3-chloro-4-fluorophenyl)amino)-6-(((3,4-dichlorophenyl)(1-methyl-1H-1,2,3-triazol-4-yl)methyl)amino)quinoline-3-carbonitrile]

IC50: 39 nM
Compound: N#Cc1cnc2c(Cl)cc(NC(c3ccc(F)cc3)c3c[nH]nn3)cc2c1Nc1ccc(F)c(Cl)c1 (stereo not drawn) [Example 893, 8-chloro-4-((3-chloro-4-fluorophenyl)amino)-6-(((4-fluorophenyl)(1H-1,2,3-triazol-4-yl)methyl)amino)quinoline-3-carbonitrile]

IC50: > 10000 nM
Compound: N#Cc1cnc2c(Cl)cc(NC(c3ccc(OC(F)(F)F)cc3)c3cn(C4CCN(C(=O)OCc5ccccc5)CC4)nn3)cc2c1Nc1ccc(F)c(Cl)c1 (stereo not drawn) [Example 896, benzyl 4-(4-(((8-chloro-4-((3-chloro-4-fluorophenyl)amino)-3-cyanoquinolin-6-yl)amino)(4-(trifluoromethoxy)phenyl)methyl)-1H-1,2,3-triazol-1-yl)piperidine-1-carboxylate]

IC50: 59 nM
Compound: N#Cc1cnc2c(Cl)cc(NC(c3ccc(OC(F)(F)F)cc3)c3cn(C4CCNCC4)nn3)cc2c1Nc1ccc(F)c(Cl)c1 (stereo not drawn) [Example 897, 8-chloro-4-((3-chloro-4-fluorophenyl)amino)-6-(((1-(piperidin-4-yl)-1H-1,2,3-triazol-4-yl)(4-(trifluoromethoxy)phenyl)methyl)amino)quinoline-3-carbonitrile]

IC50: 40 nM
Compound: CCN1CCC(n2cc(C(Nc3cc(Cl)c4ncc(C#N)c(Nc5ccc(F)c(Cl)c5)c4c3)c3ccc(OC(F)(F)F)cc3)nn2)CC1 (stereo not drawn) [Example 898, 8-chloro-4-((3-chloro-4-fluorophenyl)amino)-6-(((1-(1-ethylpiperidin-4-yl)-1H-1,2,3-triazol-4-yl)(4-(trifluoromethoxy)phenyl)methyl)amino)quinoline-3-carbonitrile]

IC50: > 1000 nM
Compound: N#Cc1cnc2c(Cl)cc(NC(c3ccc(F)c(F)c3)c3cn(C4CCN(C(=O)OCc5ccccc5)CC4)nn3)cc2c1Nc1ccc(F)c(Cl)c1 (stereo not drawn) [Example 899, benzyl 4-(4-(((8-chloro-4-((3-chloro-4-fluorophenyl)amino)-3-cyanoquinolin-6-yl)amino)(3,4-difluorophenyl)methyl)-1H-1,2,3-triazol-1-yl)piperidine-1-carboxylate]
